# Results as given in PubChem BioAssay AID489010 (Southern Research Specialized Biocontainment Screening …, 2010).
# “And” between values parts separate entries of the source, which are not always exact repeats. Equal entries are not always repeated. The source made the active and inactive calls. How the calls were made is not given here.
# Assay: M. tuberculosis H37Rv growth inhibition, dose response, strain H37Rv (AID 489010)
# Conditions: M. tuberculosis H37Rv growth inhibition; at 100 µM (top of the series)
row,Structure (SMILES),growth inhibition
1,O=C(CSc1nnc(-c2ccccc2Cl)o1)Oc1ccc(Br)cc1,0.13% (inactive)
2,COc1cccc(-c2[nH]nc3c2C(c2ccsc2)C(C#N)=C(N)O3)c1 (stereo unspecified),5.86% (inactive)
3,Cc1nn(C)c(C)c1C1C(C#N)=C(N)Oc2n[nH]c(C)c21 (stereo unspecified),2.21% (inactive)
4,O=C(Cc1cc(=O)[nH][nH]1)N/N=C/c1ccccc1Cl,2.61% (inactive)
5,N#CC1=C(N)Oc2n[nH]c(-c3cccs3)c2C1c1cccs1 (stereo unspecified),-0.42% (inactive)
6,CCOc1ccc(-c2[nH]nc3c2C(c2ccc(O)cc2)C(C#N)=C(N)O3)cc1 (stereo unspecified),-1.9% (inactive)
7,CCOC(=O)C/C(C)=N/NC(=O)COc1ccccc1C,2.99% (inactive)
8,Cc1ccc(SCc2[nH]nc3c2C2(CCSCC2)C(C#N)=C(N)O3)cc1,6.38% (inactive)
9,Cc1nc2ccccc2c2c1C(=O)N(C)C2=O,-4.82% (inactive)
10,CCOc1ccccc1C1C(C#N)=C(N)Nc2onc(-c3ccccc3)c21 (stereo unspecified),-3.07% (inactive)
11,C/C(=N\NC(=O)Cc1cc(=O)[nH][nH]1)c1cccc([N+](=O)[O-])c1,2.86% (inactive)
12,CCCCc1ccc(NC(=O)CSCc2cc(=O)[nH][nH]2)cc1,-4.95% (inactive)
13,COc1ccc(/C=C2/C(=O)N(c3ccccc3)N=C2C)c(OC)c1,4.59% (inactive)
14,CC(=O)Nc1cc(OC(=O)c2ccco2)cc(OC(=O)c2ccco2)c1,1.93% (inactive)
15,O=C(Cc1cc(=O)[nH][nH]1)N/N=C/c1cccc(Cl)c1Cl,-0.74% (inactive) and -0.13% (inactive)
16,Cc1ccc(-c2[nH]nc3c2C(c2ccc(OC(=O)N4CCOCC4)cc2)C(C#N)=C(N)O3)cc1 (stereo unspecified),3.59% (inactive)
17,C/C(=N/NC(=O)Cc1cc(=O)[nH][nH]1)c1ccc([N+](=O)[O-])cc1,-1.21% (inactive)
18,Cc1ccc(SCC2=NNC(=O)C2)cc1,5.45% (inactive)
19,Cc1cc(-c2[nH]nc3c2C(c2ccsc2)C(C#N)=C(N)O3)c(C)s1 (stereo unspecified),3.11% (inactive)
20,Cc1ccsc1/C=N/NC(=O)Cc1cc(=O)[nH][nH]1,-3.09% (inactive)
21,CC(=O)N1CCC2(CC1)C(C#N)=C(N)Oc1n[nH]c(CSc3ccc(C)cc3)c12,1.12% (inactive)
22,O=c1cc(-c2ccc(Br)cc2)[nH][nH]1,-4.27% (inactive)
23,CC1(C)N=C(SCC(=O)Nc2ccc(Cl)cc2)C(c2ccc(Cl)cc2)=N1,2.13% (inactive)
24,Cc1ccccc1-c1nc(CN(C)C(C)c2ccon2)c(C)o1 (stereo unspecified),4.51% (inactive)
25,N#CC1=C(N)Oc2n[nH]c(-c3cccs3)c2C1c1ccsc1 (stereo unspecified),2.91% (inactive)
26,CCOC(=O)C1CCN(C(=O)c2c(C)oc3c2C(=O)c2ccccc2C3=O)CC1,27.9% (inactive)

row,Structure (SMILES),growth inhibition
1,O=C1NC2=C(CCc3ccccc32)C(c2ccccc2)N1 (stereo unspecified),1.42% (inactive)
2,O=C(Cc1cc(=O)[nH][nH]1)N/N=C/c1cccc2ccccc12,0.57% (inactive)
3,N#CC1=C(N)Oc2n[nH]c(-c3ccccc3)c2C1c1cccc(OC(=O)N2CCOCC2)c1 (stereo unspecified),-2.13% (inactive)
4,N#CC1=C(N)Oc2n[nH]c(-c3cccs3)c2C1c1ccccc1C(=O)O (stereo unspecified),10.2% (inactive)
5,O=C(Cc1cc(=O)[nH][nH]1)N/N=C/c1c(Cl)cccc1Cl,9.07% (inactive)
6,O=C(Cc1cc(=O)[nH][nH]1)N/N=C/C(Cl)=C/c1ccccc1,6.66% (inactive)
7,Cc1cc(-c2[nH]nc3c2C(c2ccc(Cl)cc2)C(C#N)=C(N)O3)c(C)s1 (stereo unspecified),8.76% (inactive)
8,O=C(Cc1cc(=O)[nH][nH]1)N/N=C/C=C/c1ccccc1,-3.45% (inactive)
9,CCCc1c(-c2ccc(O)cc2)nn(-c2ccc(O)cc2)c1-c1ccc(O)cc1,6.41% (inactive)
10,COc1ccc(-c2[nH]nc3c2C(c2ccoc2)C(C#N)=C(N)O3)cc1 (stereo unspecified),-0.09% (inactive)
11,COc1ccc(N(C(=O)COc2cccc(C)c2)S(=O)(=O)c2ccc(C)cc2)cc1,16.3% (inactive)
12,N#CC(C#N)C(c1ccsc1)c1c(-c2ccccc2)[nH][nH]c1=O (stereo unspecified),-3.85% (inactive)
13,O=C(CCCN1C(=O)/C(=C/c2cccs2)SC1=S)Nc1ccc(O)cc1,21.9% (inactive)
14,CCOc1cc(C2C(C#N)=C(N)Oc3n[nH]c(-c4ccccc4)c32)ccc1O (stereo unspecified),4.87% (inactive)
15,N#Cc1ccc(-n2c(-c3ccccc3)nnc2-c2ccccc2)cc1C#N,6.39% (inactive)
16,Cc1ccc(C2C(C#N)=C(N)Oc3n[nH]c(-c4cccs4)c32)cc1 (stereo unspecified),3.65% (inactive)
17,CC(/C=N/NC(=O)Cc1cc(=O)[nH][nH]1)=C\c1ccccc1,2.34% (inactive)
18,Cc1ccc(O)c(N=CC2=C(O)c3ccccc3C2=O)c1,9.56% (inactive)
19,N#CC1=C(N)Oc2n[nH]c(-c3ccccc3)c2C1c1ccsc1 (stereo unspecified),7.24% (inactive)
20,COc1ccc(/C=C2/C(=O)N(c3ccccc3)N=C2C)cc1OC,3.28% (inactive)
21,CCCCCCOC(=O)c1ccc(OC(=O)c2cccnc2)cc1,26.1% (inactive)
22,Fc1ccc(Nc2nc(Oc3ccccc3F)nc(N3CCCC3)n2)cc1,-4.07% (inactive)
23,O=C(Cc1cc(=O)[nH][nH]1)N/N=C/c1ccccc1[N+](=O)[O-],-0.39% (inactive)
24,CC(C)CCn1c(N)c(C(=O)NCc2cccs2)c2nc3ccccc3nc21,-0.29% (inactive)
25,CC(=O)N(C1CC(C)C(C#N)(C#N)C1(C#N)C#N)N(C)C (stereo unspecified),-7.63% (inactive)
